According to the CheMixHub viscosity set:
“And” between values parts separate entries of the source, which are not always exact repeats. Equal entries are not always repeated.

Assay: xn = mol fraction of the nth substance listed

CNC(C)=O + COCCO
viscosity [mPa·s], 101.33 kPa
Conditions	308.15 K	313.15 K	318.15 K
x1 = 0.0301	1.362	1.242	1.136
x1 = 0.0501	1.393	1.27	1.16
x1 = 0.0752	1.431	1.304	1.191
x1 = 0.1036	1.476	1.343	1.227
x1 = 0.1301	1.515	1.378	1.259
x1 = 0.17	1.574	1.432	1.307
x1 = 0.2032	1.624	1.477	1.348
x1 = 0.2501	1.696	1.541	1.404
x1 = 0.302	1.776	1.613	1.468
x1 = 0.4032	1.94	1.758	1.596
x1 = 0.5037	2.114	1.91	1.73
x1 = 0.6033	2.308	2.074	1.876
x1 = 0.65	2.409	2.16	1.95
x1 = 0.7021	2.526	2.259	2.038
x1 = 0.7503	2.641	2.357	2.124
x1 = 0.8032	2.775	2.477	2.227
x1 = 0.8524	2.908	2.594	2.328
x1 = 0.9035	3.061	2.724	2.439
x1 = 0.9301	3.145	2.795	2.5
x1 = 0.9702	3.277	2.913	2.597

CC(C)CCO + COc1ccccc1
viscosity [mPa·s], 101.33 kPa
Conditions	x2 = 0.1002	x2 = 0.2	x2 = 0.3005	x2 = 0.3997	x2 = 0.5004	x2 = 0.6014	x2 = 0.7004	x2 = 0.8003	x2 = 0.9008
303.15 K	2.52	2.023	1.657	1.401	1.216	1.087	0.999	0.944	0.916
313.15 K	1.905	1.545	1.283	1.101	0.974	0.893	0.843	0.816	0.801
323.15 K	1.484	1.224	1.036	0.908	0.823	0.769	0.735	0.715	0.701

CNC(C)=O + CS(C)=O
313 K, 101 kPa
Conditions	viscosity [mPa·s]
x2 = 0.0743	2.725
x2 = 0.177	2.42
x2 = 0.2759	2.198
x2 = 0.3801	2.01
x2 = 0.4764	1.888
x2 = 0.5737	1.78
x2 = 0.6725	1.696
x2 = 0.7647	1.626
x2 = 0.8734	1.567
x2 = 0.9723	1.522

CNCCO + CS(C)=O
viscosity [mPa·s], 101.3 kPa
Conditions	x1 = 0.1038	x1 = 0.2066	x1 = 0.3084	x1 = 0.4095	x1 = 0.5101	x1 = 0.6095	x1 = 0.7084	x1 = 0.8064	x1 = 0.9035
293.15 K	2.286	2.433	2.768	3.144	3.804	4.512	5.755	7.432	9.786
298.15 K	2.054	2.173	2.45	2.754	3.293	3.852	4.836	6.143	7.947
303.15 K	1.858	1.956	2.186	2.435	2.877	3.327	4.116	5.151	6.549
308.15 K	1.691	1.771	1.964	2.168	2.537	2.905	3.542	4.368	5.476
313.15 K	1.547	1.613	1.776	1.946	2.254	2.555	3.077	3.745	4.627
318.15 K	1.419	1.481	1.615	1.755	2.016	2.264	2.697	3.241	3.954
323.15 K	1.309	1.361	1.469	1.594	1.815	2.044	2.383	2.83	3.41

Oc1ccc(Cl)cc1 + C[N+](C)(C)CCO.[Cl-]
Conditions	viscosity
293.15 K, 101 kPa, x2 = 0.333	170.6 mPa·s
298.15 K, 101 kPa, x2 = 0.333	123.2 mPa·s
298.15 K, 101.33 kPa, x1 = 0.7	180.2 mPa·s
298.15 K, 101.33 kPa, x1 = 0.8	108.2 mPa·s and 77.89 mPa·s and 66.12 mPa·s
298.15 K, 101.33 kPa, x1 = 0.9	61.06 mPa·s
303.15 K, 101 kPa, x2 = 0.333	92.75 mPa·s
308.15 K, 101 kPa, x2 = 0.333	71.68 mPa·s
313.15 K, 101 kPa, x2 = 0.333	55.45 mPa·s
318.15 K, 101 kPa, x2 = 0.333	43.94 mPa·s
323.15 K, 101 kPa, x2 = 0.333	35.45 mPa·s

CNC(C)=O + Cc1cc(C)cc(C)c1
308.15 K, 101.33 kPa
Conditions	viscosity [mPa·s]
x1 = 0.0458	0.6101
x1 = 0.3137	1.08
x1 = 0.4362	1.342
x1 = 0.5467	1.621
x1 = 0.646	1.898
x1 = 0.7315	2.174
x1 = 0.8095	2.455
x1 = 0.8779	2.719
x2 = 0.0126	3.191

CCOCCO + Cc1ccc(C)cc1
viscosity [mPa·s], 101 kPa
Conditions	298.15 K	308.15 K
x1 = 0.0551	0.632	0.555
x1 = 0.1489	0.672	0.584
x1 = 0.2499	0.725	0.625
x1 = 0.3507	0.792	0.674
x1 = 0.4514	0.875	0.735
x1 = 0.5001	0.922	0.769
x1 = 0.5497	0.975	0.808
x1 = 0.6526	1.106	0.9
x1 = 0.7513	1.262	1.01
x1 = 0.8499	1.456	1.143
x1 = 0.9549	1.717	1.319

CCOCCO + Cc1cccc(C)c1
viscosity [mPa·s], 101 kPa
Conditions	298.15 K	308.15 K
x1 = 0.0531	0.608	0.521
x1 = 0.1513	0.663	0.566
x1 = 0.2482	0.727	0.618
x1 = 0.3528	0.809	0.682
x1 = 0.4512	0.9	0.752
x1 = 0.5053	0.957	0.795
x1 = 0.5473	1.006	0.831
x1 = 0.6494	1.14	0.928
x1 = 0.751	1.3	1.04
x1 = 0.8492	1.487	1.168
x1 = 0.9554	1.731	1.33

CC(CC(C)(C)C)CP(=O)(O)CC(C)CC(C)(C)C (stereo not given) + Cc1ccccc1
298.15 K, 101 kPa
Conditions	viscosity [mPa·s]
x1 = 0.0069	0.589
x1 = 0.0129	0.633
x1 = 0.0143	0.65
x2 = 0.1117	88.23
x2 = 0.2037	66.68
x2 = 0.3198	43.9
x2 = 0.4972	20.43
x2 = 0.6533	9.197
x2 = 0.7579	4.844
x2 = 0.7674	4.562
x2 = 0.8571	2.218
x2 = 0.8649	2.075
x2 = 0.9241	1.252
x2 = 0.9269	1.219
x2 = 0.9692	0.778

CCOCCO + Cc1ccccc1
viscosity [mPa·s], 101 kPa
Conditions	298.15 K	308.15 K
x1 = 0.056	0.576	0.517
x1 = 0.1494	0.627	0.554
x1 = 0.2493	0.69	0.601
x1 = 0.3539	0.771	0.66
x1 = 0.449	0.859	0.723
x1 = 0.5019	0.915	0.763
x1 = 0.5488	0.969	0.802
x1 = 0.6514	1.107	0.899
x1 = 0.7465	1.261	1.007
x1 = 0.8514	1.468	1.149
x1 = 0.9527	1.716	1.317

CNC(C)=O + Cc1ccccc1
308.15 K, 101.33 kPa
Conditions	viscosity [mPa·s]
x1 = 0.0366	0.4848
x1 = 0.1983	0.7283
x1 = 0.3436	1.012
x1 = 0.4518	1.26
x1 = 0.5799	1.582
x1 = 0.6965	1.936
x1 = 0.7868	2.28
x1 = 0.8882	2.718
x2 = 0.0175	3.188

CCOCCO + Cc1ccccc1C
viscosity [mPa·s], 101 kPa
Conditions	298.15 K	308.15 K
x1 = 0.0533	0.777	0.674
x1 = 0.1508	0.817	0.708
x1 = 0.2502	0.867	0.75
x1 = 0.3516	0.931	0.8
x1 = 0.4528	1.009	0.858
x1 = 0.5042	1.056	0.892
x1 = 0.553	1.104	0.926
x1 = 0.6472	1.211	1.001
x1 = 0.7494	1.353	1.096
x1 = 0.8486	1.52	1.204
x1 = 0.954	1.739	1.34

CCCCCCCCBr + ClC(Cl)(Cl)Cl
101 kPa
Conditions	viscosity [mPa·s]
293.15 K, x1 = 0.0483	0.9339
293.15 K, x1 = 0.0969	0.9701
293.15 K, x1 = 0.1945	1.037
293.15 K, x1 = 0.3916	1.173
293.15 K, x1 = 0.5916	1.295
293.15 K, x1 = 0.7943	1.404
303.55 K, x1 = 0.0608	0.87
303.55 K, x1 = 0.0978	0.893
303.55 K, x1 = 0.1964	0.955
303.55 K, x1 = 0.3775	1.08
303.55 K, x1 = 0.5801	1.18
303.55 K, x1 = 0.8407	1.307
313.65 K, x1 = 0.0482	0.7513
313.65 K, x1 = 0.0973	0.7763
313.65 K, x1 = 0.1952	0.8276
313.65 K, x1 = 0.3945	0.9359
313.65 K, x1 = 0.5771	1.022
313.65 K, x1 = 0.7616	1.097

CCOCCO + ClC(Cl)(Cl)Cl
viscosity [mPa·s], 100 kPa
Conditions	x2 = 0.0977	x2 = 0.1959	x2 = 0.2946	x2 = 0.3938	x2 = 0.4935	x2 = 0.5937	x2 = 0.6945	x2 = 0.7958	x2 = 0.8976
298.15 K	1.784	1.657	1.539	1.428	1.325	1.229	1.14	1.056	0.9785
303.15 K	1.572	1.47	1.373	1.283	1.197	1.118	1.043	0.9725	0.9067
308.15 K	1.391	1.308	1.23	1.155	1.085	1.019	0.9566	0.8976	0.8421
313.15 K	1.236	1.168	1.105	1.044	0.9864	0.9318	0.8798	0.8306	0.7838
